Data reported in patent US5821251A, “Nitrogen heterocycles” (John Wyeth & Brother Limited, priority 1994, dated 1998).

Legend:
[1] = system: transient outward potassium current (TOC) in GH3 rat pituitary cell line; assay: Procedure 2: blocking transient outward potassium currents (TOC) in the GH3 rat pituitary cell line; format: cell-based; conditions: GH3 cells; for % Block of TOC, PROCEDURE 2 GH3 %: 100 μM
Procedure: The compounds were also tested for blocking transient outward potassium currents (TOC) in the GH3 rat pituitary cell line according to the procedure below:
GH3 cells were obtained from either Flow Laboratories or European Centre for Animal Cell Cultures (Porton Down), and maintained in tissue culture using standard procedures and media for this cell line. Cells were plated on 35 mm plastic dishes and used subsequently for electophysiology with 1 to 10 days.
Currents were recorded using the whole-cell voltage clamp configuration of the patch clamp technique, using an Axopatch 1C amplifier (Axon Instruments). Patch electrodes were manufactured from aluminosilicate glass tubing (Clark Electomedical SM150F-10) and heat polished prior to use. Resistance was 1-5 M.OMEGA.. No electrode coating was necessary for whole-cell recording. Signal acquisition and analysis was performed using pClamp software (Axon Instruments). A p-on-4 subtraction procedure was used to remove leak and capacitative currents on line. A holding potential of -100 mV was routinely used: this avoided accumulation of slow voltage-dependent inactivation.
Two main protocols were used in testing drugs. 1) Current-voltage (I-V) curves were collected, with incrementing steps of either 10 or 20 mV. Full I-V curves were obtained both in control and drug solutions. 2) a `pharmacology` program, which involved single voltage steps fromm -100 to +60 mV, applied and collected at 20 s intervals. Compounds under investigation were applied via a `U` tube rapid application system to a small area of the recording chamber. Drug applications were always bracketed by control solutions to ensure reversibility. The recording chamber was continously perfused at 1-5 ml.min^-1. Results are expressed at % of control peak current (step form -100 to +60 mV). However, where drugs have a time dependent effect on TOC, i.e acceleration of TOC decay, results are also expressed as a % of total charge transferred within a defined period of the voltage step from -100 to +60 mV.
The standard extracellular solution contained (in mM): NaCl 135 (or choline or TRIS chloride); KCl 5; MgCl2 4; EGTA 1; TEACl 10; HEPES 10; glucose 25; pH set to 7.4 with NaOH. TTX was usually at 100-200 nM.
The intracellular (pipette) solution was comprised of (in mM): K aspartate 120; KCl 20; MgCl2 1; cAMP 1; MgATP 2; EGTA 10; HEPES 10; pH 7.4 with KOH. Other intracellular substrates were often used without noticeable effect. This solution was stored in 1 ml aliquots at -4° C., and filtered at 0.2 μm.
These recording solutions precluded activation of voltage dependent Na, Ca, delayed rectifier and Ca-activated K currents. The resulting whole-cell currents chiefly comprised the transient outward potassium current, switching on with third power kinetics reaching peak amplitudes of ~1 nA at +60 mV, and a double exponential decay (time constants of ~30 and 160 ms at +60 mV). There is no significant change in current amplitude within the normal recording period, which may extend for up to 90 min. One dish of cells usually lasts several hours.
The standard compound 4-aminopyridine is a block @ 1-5 mM. (80% block at 5 mM).

[2] = system: voltage gated potassium channels (transient outward current, TOC) in dorsal root ganglion (DRG) cells; assay: Procedure 1: modulation of voltage-activated K^+ currents in dorsal root ganglion (DRG) cells, block of TOC; format: cell-based
Source text: They may therefore by used to treat CNS disorders as described above such as depression, pain psychoses, anxiety, movement disorders (such as Parkinson's disease) and multiple sclerosis and in enhancing cognition, memory and learning.
Procedure 1 Modulation of voltage-activated K^+ currents in dorsal root ganglion (DRG) cells:
The method used in the culture or dorsal root ganglion cells is similar to that described by Wood et. al., Capsaicin induced ion fluxes in dorsal root ganglion cells in culture, J. Neuroscience, 8, 3208-3220) (1988). Dorsal root ganglia are dissected mainly from around the lumbar and thoracic vertebrae and placed in a conical centrifuge tube containing Ham's F14 nutrient mixture (F14:Imperial Laboratories) plus horse serum (HS: GIBCO or Flow). When all ganglia have been collected (ex ca. 14 pups) the excess medium is removed and the ganglia incubated for 30 min in "F14+HS" containing 0.1% collagenase Type 1A-S (Sigma). Excess medium is removed, ganglia washed in 4 ml F14 (no HS), resuspended and spun down at 900 g for 10 s. The supernatant is again removed and replaced with 1.8 ml F14 (no HS) plus 0.2 ml trypsin (GIBCO) at a final concentration of 0.25%. The ganglia are then incubated at 37° C. for 30 min agitating every 10 min to prevent clumping. The trypsinisation is inhibited by the addition of 6 ml "F14+HS" and cells are resuspended and centrifuged as before. The medium is removed and 2 ml added of "F14+HS" containing 0.4% DNAase 1 (Sigma). The ganglia are then triturated gently 15-20× using a siliconised pasteur pipette, filtered through a […] nylon mesh filter and collected into a centrifuge tube. The filter is further washed with 2 ml of "F14+HS" which is collected into the same tube. The suspension is spun at 900 g for 3 min, the supernatant removed and the cells resuspended in DRG Growth Medium (DRG-GM) which consists of: HAMS F14 nutrient mixture (40%, v/v), HS(10%, v/v) C6 conditioned medium (50%, v/v), penicillin/streptomycin (100 U/ml; 100 μg/ml) and NGF (30 μg/ml). Cells are then plated out onto five 60 mm poly-L-lysine-coated tissue culture petri dishes (see below).
After a few days in culture (3-7 days, usually), cells are resuspended from 60 mm dishes using a 0.25% solution of trypsin in F14. An equal volume of DRG-GM is added to inhibit the trypsin, the cells are spun at 900 g for 5 minutes and resuspended in 0.25-0.5 ml of DRG-GM. Neurites are removed by gentle trituration through a 21 g syringe needle (15-20 strokes) and a drop of the cell suspension is then placed on each of 5-6 poly-D-lysine- and laminin-coated 35 mm petri dishes (see below). After 30 minutes incubation at 37° C., each plate is flooded with ca 1.5 ml DRG-GM and after about 1 hour incubation, cells are ready for electrophysiological recording. This final step is carried out specifically in order to remove neurites which hinder good voltage-clamp of the cells.
2 ml of poly-D-lysine (Sigma), reconstituted in distilled water to 100 μg/ml, are added to each plate and left for 1-2 hours. Plates are then washed with water and left to dry. Laminin (5 μg/ml) is added as a drop to the centre of plates (previously coated with poly-D-Lys), left for 45 min before removal of excess and use of plates.
Recordings are made using an AxoClamp-2A (Axon Instruments Inc) switiching clamp amplifier using patch electrodes (4-8 Mohms), made from borosilicate glass capillary tubes (GC150TF-10, Clark Electromedical) and fire-polished. Electrodes are filled with (in mM): 140 K Gluconate, 2 MgCl2, 1.1 EGTA/KOH, 5 HEPES, 20 sucrose, 2 MgATP, 0.2 GTP; pH set to 7.2 with KOH and osmolarity adjusted with sucrose to 310 mOsm. The electrodes are then and dipped in Sigmacote (Sigma) prior to recording to reduce stray capacitance. […]

Q: How did the “% Block of TOC, PROCEDURE 2 GH3 %” value [1] turn out when `COc1ccc(C[C@@H]2CC[C@H]3NC[C@H](CO)C[C@@H]3C2)cc1` (racemic) [Example 2, (±)-(3RS,4aSR,6RS,8aRS)-1,2,3,4,4a,5,6,7,8,8a-Decahydro-3-hydroxymethyl-6-((4-methoxyphenyl)methyl)quinoline] was run?
A: 31%

Q: How did the “% Block of TOC, PROCEDURE 2 GH3 %” value [1] turn out when `COc1ccc(C[C@H]2CC[C@H]3NC[C@H](CO)C[C@H]3C2)cc1` (racemic) [Example 4, (±)-(3RS,4aRS,6SR,8aRS)-1,2,3,4,4a,5,6,7,8,8a-Decahydro-3-hydroxymethyl-6-((4-methoxyphenyl)methyl)quinoline] was run?
A: 56%

Q: And the “% Block of TOC, PROCEDURE 1 DRG %” value ([2]; 100 μM)?
A: 60%

Q: Which “% Block of TOC, PROCEDURE 2 GH3 %” value [1] does the source give for `COc1ccc(C[C@H]2CC[C@@H]3NC[C@H](CO)C[C@H]3C2)cc1` (relative stereo) [Example 3, (±)-(3RS,4aRS,6SR,8aSR)-1,2,3,4,4,a,5,6,7,8,8a-Decahydro-3-hydroxymethyl-6-((4-methoxyphenyl)methyl)quinoline] here?
A: 68%

Q: And the “% Block of TOC, PROCEDURE 1 DRG %” value ([2]; 10 μM)?
A: 32%

Q: Which results are given for `Nc1ccncc1` [4-aminopyridine, reference compound]?
A: block (standard compound), in words ([1]; @ 1-5 mM): block; block (standard compound) ([1]; at 5 mM): 80%; block of TOC (standard compound) ([2]; at 1 mM): 100%

Q: `COc1ccc(CC2CCC3NCC(CO)CC3C2)cc1` (stereo not drawn) [Example 1, 1,2,3,4,4a,5,6,7,8,8a-Decahydro-3-hydroxymethyl-6-((4-methoxyphenyl)methyl)quinoline] was tested. Which “% Block of TOC, PROCEDURE 2 GH3 %” value [1] did it give?
A: 55%

Q: How did the “% Block of TOC, PROCEDURE 1 DRG %” value ([2]; 10 μM) turn out when `COc1ccc(C[C@@H]2CC[C@H]3NC[C@H](CO)C[C@@H]3C2)cc1` [Example 6, (+)-(3R,4aS,6R,8aR)-1,2,3,4,4a,5,6,7,8,8a-Decahydro-3-hydroxymethyl-6-((4-methoxyphenyl)methyl)quinoline] was run?
A: 29%

Q: Which “% Block of TOC, PROCEDURE 1 DRG %” value ([2]; 10 μM) does the source give for `COc1ccc(C[C@H]2CC[C@@H]3[C@@H](CCCN3[C@H](C)c3ccccc3)C2)cc1` [Example 8, (+)-(1'R,4aS,6S,8aR)-1,2,3,4,4a,5,6,7,8,8a-Decahydro-6-((4-methoxyphenyl)methyl)-1-(1'-phenylethyl)quinoline] here?
A: 49%

Q: How did the “% Block of TOC, PROCEDURE 1 DRG %” value ([2]; 10 μM) turn out when `COc1ccc(C[C@H]2CC[C@H]3NCCC[C@H]3C2)cc1` [Example 9, (-)-(4aS,6S,8aR)-3,4,4a,5,6,7,8,8a-Decahydro-6-((4-methoxyphenyl)methyl)quinoline] was run?
A: 28%
